In paper PMC11126973, “Targeting the Plasmodium falciparum UCHL3 ubiquitin hydrolase using chemically constrained peptides” (Proceedings of the National Academy of Sciences of the …, 2024):
Values joined by “and” are separate entries in the source; they are usually repeats but may differ in a detail not shown here. Equal values may be shown once. Bridge positions count the residues as written; N and C are the ends. Square brackets hold non-standard residues; d marks the D form. Peptide text beside a SMILES is read from it.

Key:
PfUCHL3 [1] = biological target: T1, PfUCHL3 (Plasmodium falciparum, UniProt Q8IKM8); test: biochemical; format: binding; set-up: His tag (TEV-cleavable) (cleaved yes); made in house; details: for Kd: BLI, 25 °C
T1 sequence (Q8IKM8 1-232): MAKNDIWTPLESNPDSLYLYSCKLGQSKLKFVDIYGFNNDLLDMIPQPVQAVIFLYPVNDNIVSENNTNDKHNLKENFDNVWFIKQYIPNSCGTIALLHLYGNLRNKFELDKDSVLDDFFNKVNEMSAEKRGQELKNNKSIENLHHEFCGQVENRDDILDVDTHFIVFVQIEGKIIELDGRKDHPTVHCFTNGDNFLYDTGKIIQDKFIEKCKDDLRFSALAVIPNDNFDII
Procedure: BLI experiments were performed using a ForteBio Octet Red96 instrument at 25 °C. Measurements were performed in black 96-well plates with a well volume of 200 μL. Biotinylated Avi-tagged PfUCHL3 was prepared in a buffer containing 50 mM Tris-HCl buffer, 200 mM NaCl, 0.5 mM TCEP, pH 7.5, and loaded at 1 μg/mL for 60 s. Peptides were diluted to a 4 μM stock concentration in the same DMSO:water mix in which they were resuspended from their stock powder (approximately 4%). The final dilutions (to 400 nM, 133.3 nM, and 44.4 nM) were performed in the same buffer as for the PfUCHL3. Streptavidin-coated tips were used with a new tip for each measurement, because regeneration with PfUCHL3 attached to the tip was not possible. The association and dissociation times were 300 s. All data analysis was performed with the instrument software.

HsUCHL3 = test system: T2, HsUCHL3; test: Ub-AMC deubiquitination (DUB) assay, HsUCHL3; format: biochemical, human; details: peptide 25 μM, HsUCHL3 31.25 pM
T2 construct: His tag (TEV-cleavable) (cleaved yes); made in house; host or cells: bacterial cells (purified 'as described above')
Procedure: (§1) DUB assays were performed in triplicate in 384-well plates (Corning) using a CLARIOstar plus plate reader. PfUCHL3, HsUCHL3, or peptide were diluted in reaction buffer (50 mM Tris-HCl buffer, pH 7.5, 150 mM NaCl, 1 mg/mL BSA, 0.1% DMSO, and 1 mM TCEP) to 4× the desired final peptide/protein concentration (to keep DMSO concentration constant in all reactions). Protein and peptide (or 0.1% DMSO (mock)) were mixed 1:1 and incubated for 10 min at room temperature, with each enzyme complex at 2× the desired final concentration. Enzyme:peptide mixture (10 μL) and Ub-AMC (7-amino-4-methylcoumarin, Boston Biochem) (250 nM, 10 μL) were mixed in a 384-well plate. DUB activity was measured by monitoring the increase in AMC fluorescence. The kinetic trace at each concentration of peptide was corrected for background and then the initial rate of reaction was determined. The rate of reaction was plotted against the concentration of peptide to determine the IC50 using the following equation: Y=Vmax^*X/IC50+X,
(§2) where Vmax is the reaction rate in the absence of inhibitor, X is the concentration of the peptide inhibitor, and IC50 is the peptide concentration when the rate was inhibited by the peptide by 50%. The data were fitted using Prism (Graphpad).

PfUCHL3 [2] = biological target: T1, PfUCHL3; test: Thermal shift assay (TSA) of PfUCHL3 with peptides; format: binding; set-up: His tag (TEV-cleavable) (cleaved yes); made in house; host or cells: bacterial cells (purified 'as described above', C41); details: peptide 48 pM to 25 μM, PfUCHL3 5 μM
Procedure: Thermal shift assays were performed using a Bio-Rad CFX Connect qPCR instrument, whereby the unfolding is detected by fluorescence of the hydrophobic dye Sypro Orange that binds to the unfolded state of the protein. The experiments were performed in clear-bottom, half-volume, 96-well plates using final well volumes of 25 μL, PfUCHL3 concentration of 5 μM, peptide concentrations ranging from 47 pM to 25 μM, and Sypro Orange:protein concentration ratio of 1:400. PfUCHL3, Sypro orange, and peptide were diluted to 5x concentration in buffer, 1:2,000 concentration in buffer, and 4% DMSO, respectively, before being mixed in the well to a final 1x concentration in buffer. For the PfUCHL3-only control, the peptide was replaced with 4% DMSO and for the buffer control, the PfUCHL3 was replaced with buffer in the sample mix. The samples were incubated at 20 °C for 2 min before increasing by 0.5 °C every 30 s up to 90 °C. At each temperature, the fluorescence intensity was measured using an excitation wavelength of 471 nm and an emission wavelength of 570 nm. Data analysis was performed using the GraphPad Prism software.

PfUCHL3 [3] = biological target: T1, PfUCHL3; test: biochemical; set-up: His tag (TEV-cleavable) (cleaved yes); made in house
Procedure: as §1, §2

| SMILES | koff (PfUCHL3 [1]) | kon (PfUCHL3 [1]) | Kd (PfUCHL3 [1]; 1:1 (1-site) model) | inhibitory effect on the human UCHL3 enzyme (HsUCHL3) | dose dependence of PfUCHL3 melting temperature (PfUCHL3 [2]) | Kd (PfUCHL3 [1]; complex profile fitted to heterogeneous model, the tighter of the two Kd values) | IC50 (PfUCHL3 [3]) |
| --- | --- | --- | --- | --- | --- | --- | --- |
| CC[C@H](C)[C@@H]1NC(=O)[C@H](Cc2ccc(O)cc2)NC(=O)[C@H](CCCNC(=N)N)NC(=O)[C@H](CCC(N)=O)NC(=O)[C@H](Cc2ccc(O)cc2)NC(=O)[C@H](CC(=O)O)NC(=O)[C@@H](Cc2c[nH]c3ccccc23)NC(=O)CSC[C@@H](C(=O)O)NC(=O)[C@H](Cc2c[nH]c3ccccc23)NC(=O)[C@H](CS)NC(=O)[C@H]([C@@H](C)O)NC(=O)[C@H]([C@@H](C)O)NC(=O)[C@H](CC(C)C)NC(=O)[C@H](CCCNC(=N)N)NC(=O)[C@H](Cc2ccccc2)NC(=O)[C@H](CCCCN)NC1=O [Peptide 58474] ({CH2CO}-[dW]DYQRYIKFRLTTCWC-OH; thioether N-16) | 0.00174 ± 9e-05 s⁻¹ | 17100 ± 900 M⁻¹ s⁻¹ | 101 ± 7 nM |  |  |  |  |
| CC[C@H](C)[C@@H]1NC(=O)[C@H](Cc2c[nH]c3ccccc23)NC(=O)[C@H](CC(C)C)NC(=O)[C@H](CCCNC(=N)N)NC(=O)[C@@H](Cc2c[nH]c3ccccc23)NC(=O)CSC[C@@H](C(=O)O)NC(=O)[C@H](CC(=O)O)NC(=O)[C@H](Cc2ccc(O)cc2)NC(=O)[C@H](CCCNC(=N)N)NC(=O)[C@H](CC(N)=O)NC(=O)[C@H](Cc2ccc(O)cc2)NC(=O)[C@H](CCCNC(=N)N)NC(=O)[C@H](CCCNC(=N)N)NC(=O)[C@H](CCC(=O)O)NC(=O)[C@H](CO)NC(=O)[C@H](CC(C)C)NC1=O [Peptide 60296] ({CH2CO}-[dW]RLWILSERRYNRYDC-OH; thioether N-16) | 0.0053 ± 6e-05 s⁻¹ | 569000 ± 16000 M⁻¹ s⁻¹ |  | Neither 60296 nor 60297 peptides showed any inhibitory effect | increase in a dose-dependent manner |  |  |
| CC(C)[C@@H]1NC(=O)[C@H](Cc2ccc(O)cc2)NC(=O)[C@H](Cc2c[nH]cn2)NC(=O)[C@H](Cc2c[nH]c3ccccc23)NC(=O)[C@@H]2CCCN2C(=O)[C@H](Cc2c[nH]c3ccccc23)NC(=O)[C@H](Cc2ccccc2)NC(=O)[C@H]([C@@H](C)O)NC(=O)[C@H]([C@@H](C)O)NC(=O)[C@@H](Cc2c[nH]c3ccccc23)NC(=O)CSC[C@@H](C(=O)O)NC(=O)[C@H](CCC(N)=O)NC1=O [Peptide 60297] ({CH2CO}-[dW]TTFWPWHYVQC-OH; thioether N-12) |  |  |  |  |  | 2 nM and ~2 nM | 1440 ± 371 nM |
